Series [1] relates to pinch skin graft from male BALB/c donors transplanted to male C3H(H-2K) recipients. In words: Survival time of pinch skin graft. It counts as in vivo, mouse. Conditions: 4 mg/kg; intraperitoneally or orally; untreated usually rejected within 6-7 days. As to the method:
(§1) Immunosuppressive activity for representative compounds of this invention was evaluated in an in vitro standard pharmacological test procedure to measure lymphocyte proliferation (LAF) and in an in vivo standard pharmacological test procedure which evaluated the survival time of a pinch skin graft.
Representative compounds of this invention were also evaluated in an in vivo test procedure designed to determine the survival time of pinch skin graft from male BALB/c donors transplanted to male C3 H(H-2K) recipients. The method is adapted from Billingham R. E. and Medawar P. B., J. Exp. Biol. 28:385-402, (1951). Briefly, a pinch skin graft from the donor was grafted on the dorsum of the recipient as a allograft, and an isograft was used as control in the same region. The recipients were treated with either varying concentrations of test compounds intraperitoneally or orally. Rapamycin was used as a test control. Untreated recipients serve as rejection control. The graft was monitored daily and observations were recorded until the graft became dry and formed a blackened scab. This was considered as the rejection day. The mean graft survival time (number of days ±S.D.) of the drug treatment group was compared with the control group. […] Results are expressed as the mean survival time in days. Untreated (control) pinch skin grafts are usually rejected within 6-7 days. The results shown in Table 1 are based on a dose of 4 mg/kg of test compound. A survival time of 11.67±0.63 days was obtained for rapamycin at 4 mg/kg.

Series [2] has as its system cells from the thymus of normal BALB/c mice (lymphocyte proliferation). In words: Comitogen-induced thymocyte proliferation procedure (LAF). The format is cell-based. Conditions: Mus musculus. On the procedure:
as §1
The comitogen-induced thymocyte proliferation procedure (LAF) was used as an in vitro measure of the immunosuppressive effects of representative compounds. Briefly, cells from the thymus of normal BALB/c mice are cultured for 72 hours with PHA and IL-1 and pulsed with tritiated thymidine during the last six hours. Cells are cultured with and without various concentrations of rapamycin, cyclosporin A, or test compound. Cells are harvested and incorporated radioactivity is determined. Inhibition of lymphoproliferation is assessed as percent change in counts per minute from non-drug treated controls. For each compound evaluated, rapamycin was also evaluated for the purpose of comparison. An IC50 was obtained for each test compound as well as for rapamycin. […] The results obtained for the representative compounds of this invention are presented as IC50s.

Series [3] is described as follows: Relative oral potency: oral and i.p. ED50s in the skin graft test procedure. The format is in vivo. Conditions: mouse, ratio of oral and i.p. ED50s, p.o. 40, 10, 2.5 mg/kg, i.p. 4, 1, 0.25 mg/kg, 6 consecutive days, data obtained in cremophor, lower ratio = greater oral bioavailability. On the procedure:
The relative oral potency is determined by comparing the oral and i.p. ED50s obtained in the skin graft standard pharmacological test procedure. Briefly, the compound to be tested is evaluated at the doses of 40, 10, and 2.5 mg/kg for p.o. administration and 4, 1, and 0.25 mg/kg for i.p. administration, both administered for 6 consecutive days in the skin graft test procedure so that a dose response curve can be generated for both oral and i.p. administration. The data are subjected to a parallel line analysis and an oral and i.p. ED50 is calculated for the compound tested, and the ED50s are expressed as a ratio according to the following formula: [formula]
When comparing oral potency for different compounds that have been evaluated, the lower the ratio, the greater the oral bioavailability. The oral bioavailability serves as a measure of oral potency.

The test system of another series is Candida albicans. Conditions: particularly against Candida albicans, both in vitro and in vivo; cited from earlier work.
For series [4], the system named is experimental allergic encephalomyelitis. Conditions: model for multiple sclerosis; cited from earlier work.
Another series has as its system adjuvant arthritis. Conditions: model for rheumatoid arthritis; cited from earlier work.
Setting [5] is: 72 hours with PHA and IL-1, tritiated thymidine during last six hours, read-out: LAF IC50.

Where two headings read alike, the source gives them in different places.

Here are results for ten molecules from patent US5389639A, “Amino alkanoic esters of rapamycin” (American Home Products Company, priority 1993, dated 1995).

As a reminder, the IC50 is the concentration that gives 50% inhibition.

Consider `CO[C@H]1C[C@@H]2CC[C@@H](C)[C@@](O)(O2)C(=O)C(=O)N2CCCC[C@H]2C(=O)O[C@H]([C@H](C)C[C@@H]2CC[C@@H](OC(=O)C[C@H](NC(=O)OCc3ccccc3)C(=O)O)[C@H](OC)C2)CC(=O)[C@H](C)/C=C(\C)[C@@H](O)[C@@H](OC)C(=O)[C@H](C)C[C@H](C)/C=C/C=C/C=C/1C` [Example 1, Rapamycin 42-ester with (S)-3-carboxy-3-[[[phenylmethoxy]carbonyl]amino]-propanoic acid], for which, in series [1], the “Skin Graft mean survival time (days ± SD)” value was determined as 10.00 ± 0.00 days. For the same molecule, in series [2] (setting [5]), the IC50 was 10.7 nM.

As to `CO[C@H]1C[C@@H]2CC[C@@H](C)[C@@](O)(O2)C(=O)C(=O)N2CCCC[C@H]2C(=O)O[C@H]([C@H](C)C[C@@H]2CC[C@@H](OC(=O)C[C@H](N)C(=O)O)[C@H](OC)C2)CC(=O)[C@H](C)/C=C(\C)[C@@H](O)[C@@H](OC)C(=O)[C@H](C)C[C@H](C)/C=C/C=C/C=C/1C` [Example 3, Rapamycin 42-ester with (S)-3-amino-3-carboxypropanoic acid], the “Skin Graft mean survival time (days ± SD)” value in series [1] turned out to be 10.17 ± 0.75 days. Further, the 50% inhibitory concentration (IC50) in series [2] (setting [5]) stood at 2.5 nM.

For the molecule `CCCOC(=O)N[C@@H](CCC(=O)O[C@@H]1CC[C@@H](C[C@@H](C)[C@@H]2CC(=O)[C@H](C)/C=C(\C)[C@@H](O)[C@@H](OC)C(=O)[C@H](C)C[C@H](C)/C=C/C=C/C=C(\C)[C@@H](OC)C[C@@H]3CC[C@@H](C)[C@@](O)(O3)C(=O)C(=O)N3CCCC[C@H]3C(=O)O2)C[C@H]1OC)C(=O)O` [Example 4, Rapamycin 42-ester with (S)-4-carboxy-4-[[[propyloxy]carbonyl]amino]butanoic acid], the “Skin Graft mean survival time (days ± SD)” value in series [1] stood at 11.00 ± 1.00 days. In series [2] (setting [5]), the IC50 was determined as 3.2 nM.

With `CCCOC(=O)N[C@H](CCC(=O)O[C@@H]1CC[C@@H](C[C@@H](C)[C@@H]2CC(=O)[C@H](C)/C=C(\C)[C@@H](O)[C@@H](OC)C(=O)[C@H](C)C[C@H](C)/C=C/C=C/C=C(\C)[C@@H](OC)C[C@@H]3CC[C@@H](C)[C@@](O)(O3)C(=O)C(=O)N3CCCC[C@H]3C(=O)O2)C[C@H]1OC)C(=O)O` [Example 5, Rapamycin 42-ester with (R)-4-carboxy-4[[[propyloxy]carbonyl]amino]-butanoic acid], the “Skin Graft mean survival time (days ± SD)” value in series [1] was determined as 10.83 ± 0.75 days. In series [2] (setting [5]), the IC50 came to 3.9 nM.

Consider `CO[C@H]1C[C@@H]2CC[C@@H](C)[C@@](O)(O2)C(=O)C(=O)N2CCCC[C@H]2C(=O)O[C@H]([C@H](C)C[C@@H]2CC[C@@H](OC(=O)CC[C@H](N)C(=O)O)[C@H](OC)C2)CC(=O)[C@H](C)/C=C(\C)[C@@H](O)[C@@H](OC)C(=O)[C@H](C)C[C@H](C)/C=C/C=C/C=C/1C` [Example 7, Rapamycin 42-ester with (S)-4-amino-4-carboxy-butanoic acid], for which the “Skin Graft mean survival time (days ± SD)” value in series [1] is given as 10.80 ± 0.40 days. Besides, in series [2] (setting [5]), the IC50 is 14 nM.

Regarding `CO[C@H]1C[C@@H]2CC[C@@H](C)[C@@](O)(O2)C(=O)C(=O)N2CCCC[C@H]2C(=O)O[C@H]([C@H](C)C[C@@H]2CC[C@@H](OC(=O)CC[C@@H](N)C(=O)O)[C@H](OC)C2)CC(=O)[C@H](C)/C=C(\C)[C@@H](O)[C@@H](OC)C(=O)[C@H](C)C[C@H](C)/C=C/C=C/C=C/1C` [Example 9, Rapamycin 42-ester with (R)-4-amino-4-carboxybutanoic acid], in series [1], the “Skin Graft mean survival time (days ± SD)” value came to 11.20 ± 1.00 days. Also, the IC50 in series [2] (setting [5]) turned out to be 7.8 nM.

Regarding `CO[C@H]1C[C@@H]2CC[C@@H](C)[C@@](O)(O2)C(=O)C(=O)N2CCCC[C@H]2C(=O)O[C@H]([C@H](C)C[C@@H]2CC[C@@H](OC(=O)CC[C@H](NC(=O)OCc3ccccc3)C(=O)O)[C@H](OC)C2)CC(=O)[C@H](C)/C=C(\C)[C@@H](O)[C@@H](OC)C(=O)[C@H](C)C[C@H](C)/C=C/C=C/C=C/1C` [Example 10], the “Skin Graft mean survival time (days ± SD)” value in series [1] was 10.17 ± 0.41 days. In addition, in series [2] (setting [5]), the IC50 amounted to 27.1 nM.

Consider `CO[C@H]1C[C@@H]2CC[C@@H](C)[C@@](O)(O2)C(=O)C(=O)N2CCCC[C@H]2C(=O)O[C@H]([C@H](C)C[C@@H]2CC[C@@H](OC(=O)CC[C@H](N)C(=O)OC(C)(C)C)[C@H](OC)C2)CC(=O)[C@H](C)/C=C(\C)[C@@H](O)[C@@H](OC)C(=O)[C@H](C)C[C@H](C)/C=C/C=C/C=C/1C` [Example 11, Rapamycin 42-ester with-(S)-4-amino-5-(1,1-dimethylethoxy)-5-oxo-pentanoic acid], for which, in series [3], the selectivity ratio was 5.6. In addition, the “Skin Graft mean survival time (days ± SD)” value in series [1] is 11.50 ± 1.05 days. In addition, the IC50 in series [2] (setting [5]) was 1.1 nM.

Take `CO[C@H]1C[C@@H]2CC[C@@H](C)[C@@](O)(O2)C(=O)C(=O)N2CCCC[C@H]2C(=O)O[C@H]([C@H](C)C[C@@H]2CC[C@@H](OC(=O)CC[C@H](NC(=O)OC(C)(C)C)C(=O)OC(C)(C)C)[C@H](OC)C2)CC(=O)[C@H](C)/C=C(\C)[C@@H](O)[C@@H](OC)C(=O)[C@H](C)C[C@H](C)/C=C/C=C/C=C/1C` [Rapamycin 42-ester with (S)-5-tert-butoxy-4-tert-butoxycarbonylamino-5-oxo-pentanoic acid, reference compound]: the selectivity ratio in series [3] was determined as 188.

As to `CO[C@H]1C[C@@H]2CC[C@@H](C)[C@@](O)(O2)C(=O)C(=O)N2CCCC[C@H]2C(=O)O[C@H]([C@H](C)C[C@@H]2CC[C@@H](O)[C@H](OC)C2)CC(=O)[C@H](C)/C=C(\C)[C@@H](O)[C@@H](OC)C(=O)[C@H](C)C[C@H](C)/C=C/C=C/C=C/1C` [rapamycin], the antifungal activity result with Candida albicans is reported as “antifungal activity”. For the same molecule, the “effect in the experimental allergic encephalomyelitis model” value in series [4] was “effective”. In the series with adjuvant arthritis, the “effect in the adjuvant arthritis model” value is given as “effective”. The “Skin Graft mean survival time (days ± SD)” value in series [1] amounted to 11.67 ± 0.63 days. For the same molecule, the IC50 in series [2] (read-out: IC50 of rapamycin as comparator (LAF)) was 2.8 to 11.6 nM.
